In patent publication US20180110824A1, “Macrocyclic Modulators of the Ghrelin Receptor” (Ocera Therapeutics, Inc., priority 2016, published 2018):
Like-named read-outs stand apart in the source and are kept apart here.

Target: T1, human growth hormone secretagogue receptor (hGHS-R1a) (Homo sapiens, UniProt Q92847)
T1 construct: purchased PerkinElmer BioSignal #RBHGHSM; host or cells: HEK-293, stably transfected
Experiment: Competitive radioligand binding assay (ghrelin receptor), [125I]-ghrelin displacement on GHS-R/HEK 293 membranes;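 on Binding Activity at the Human Ghrelin Receptor (Ki): symbols B 10-100 nM C 0.1-1 µM D 1-10 µM F above 1 µM G above 10 µM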
Procedure: The competitive binding assay at the human growth hormone secretagogue receptor (hGHS-R1a) was carried out analogously to assays described in the literature.
Multiscreen Harvest plates-GF/C (Millipore, #MAHFC1H60) • 4. […] Bottom seal (Millipore, #MATAH0P00) • 7. […] Binding Buffer: 25 mM Hepes (pH 7.4), 1 mM CaCl2, 5 mM MgCl2, 2.5 mM EDTA, 0.4% BSA
Competition experiments were performed in a 300 μl filtration assay format. • 1. 220 μL of membranes diluted in binding buffer • 2. 40 μL of compound diluted in binding buffer • 3.
Compounds were provided frozen on dry ice at a stock concentration of 10 mM diluted in 100% DMSO and stored at −80° C. until the day of testing. On the test day, compounds were allowed to thaw at rt O/N and then diluted in assay buffer according to the desired test concentrations. Under these conditions, the maximal final DMSO concentration in the assay was 0.1%.
Plates were sealed with TopSeal-A, vortexed gently and incubated at rt for 30 min. The reaction was arrested by filtering samples through Multiscreen Harvest plates (pre-soaked in 0.5% polyethyleneimine) using a Tomtec Harvester, washed 9 times with 500 μL of cold 50 mM Tris-HCl (pH 7.4, 4° C.), and then plates were air-dried in a fumehood 30 min. A bottom seal was applied to the plates prior to the addition of 25 μL of MicroScint-0 to each well. […] Results were expressed as counts per minute (cpm).
Data were analyzed by GraphPad Prism (GraphPad Software, San Diego, Calif.) using […] non-linear regression analysis.
where total and non-specific binding represent the cpm obtained in the absence or presence of 1 μM ghrelin, respectively.
• 1. Binding performed on membranes prepared from HEK293 expressing the transfected, cloned human ghrelin receptor (hGHS-R1a). • 2. […] Ghrelin (unlabeled, 1 μM) was used to determine non-specific binding. • 4.

[1] = Table 3B, binding activity at the human ghrelin receptor, read-out: Ki
[2] = Binding activity at the human ghrelin receptor, [125I]-ghrelin displacement, read-out: Ki
[3] = [125I]-ghrelin displacement, GHS-R/HEK 293 membranes, class symbols, read-out: Binding Activity at the Human Ghrelin Receptor (Ki)

T1 sequence (Q92847 whole entry): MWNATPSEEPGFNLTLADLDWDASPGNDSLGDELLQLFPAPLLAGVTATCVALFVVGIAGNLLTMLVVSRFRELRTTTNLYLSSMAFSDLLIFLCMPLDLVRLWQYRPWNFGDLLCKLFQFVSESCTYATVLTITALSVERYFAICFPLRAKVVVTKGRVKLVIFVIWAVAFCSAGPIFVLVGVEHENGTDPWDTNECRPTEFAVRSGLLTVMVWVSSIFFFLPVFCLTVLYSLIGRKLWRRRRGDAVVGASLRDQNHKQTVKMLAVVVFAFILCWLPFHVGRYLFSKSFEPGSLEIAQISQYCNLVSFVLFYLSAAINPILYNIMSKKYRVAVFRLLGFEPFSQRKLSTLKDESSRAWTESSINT

## COc1ccc(C[C@H]2NC(=O)[C@@H](C)N(C)C(=O)[C@H](C3CC3)NCCOc3ccccc3CCCNC2=O)cc1OC [compound 323]
[1]
  Ki: 100 to 1000 nM

## CCC[C@H]1NCCOc2ccccc2CCCNC(=O)[C@@H](Cc2ccccc2)NC(=O)CN(C)C1=O [compound 55]
[2]
  Ki: 1000 to 10000 nM

## CCC[C@@H]1NCCOc2ccccc2CCCNC(=O)[C@@H](Cc2ccccc2)NC(=O)[C@@H]2CCCN2C1=O [compound 220]
Table 3E, read-out: Ki
  Ki: 1000 to 10000 nM
[3]
  Ki: 1000 to 10000 nM

## C[C@@H]1C(=O)N[C@H](Cc2ccc(F)cc2)C(=O)NCCCc2cc(F)ccc2OCCN[C@@H](C2CC2)C(=O)N1C [compound 355]
[1]
  Ki: 10 to 100 nM

## CCC[C@@H]1NCCOc2ccccc2CCCNC(=O)[C@@H](Cc2ccccc2)NC(=O)[C@H](Cc2ccccc2)NC1=O [compound 64]
[2]
  Ki: > 10000 nM

## CC[C@H](C)[C@@H]1NCCOc2ccccc2[C@@H]2C[C@@H]2CNC(=O)[C@H](Cc2cccc(Cl)c2)NC(=O)C2(CCCC2)NC1=O [compound 387]
[1]
  Ki: 100 to 1000 nM

## CCCC1NCC/C=C/CCNC(=O)C(Cc2ccccc2)NC(=O)CN(C)C1=O (stereo not drawn) [compound 83]
[2]
  Ki: > 10000 nM

## C[C@@H]1C(=O)N[C@H](Cc2ccc(F)cc2)C(=O)NCCCc2cc(C(F)(F)F)ccc2OCCN[C@@H](C2CC2)C(=O)N1C [compound 356]
[1]
  Ki: 100 to 1000 nM

## CC(C)C[C@@H]1NCCOc2ccccc2/C=C/CNC(=O)[C@H](Cc2cccc3ccccc23)NC(=O)C2(CCCC2)NC1=O [compound 22]
[2]
  Ki: 10 to 100 nM

## CC(C)C[C@@H]1NCCOc2ccccc2CCCNC(=O)[C@H](CCCCN)NC(=O)C2(CCCC2)NC1=O [compound 91]
[2]
  Ki: > 10000 nM

## CCC[C@H]1NCCOc2ccccc2CCCNC(=O)[C@H](Cc2ccccc2)NC(=O)CN(C)C1=O [compound 56]
[2]
  Ki: > 10000 nM

## C[C@@H]1C(=O)N[C@H](Cc2cc(F)c(F)c(F)c2)C(=O)NCCCc2ccccc2OCCN[C@@H](C2CC2)C(=O)N1C [compound 391]
[1]
  Ki: 0.1 to 10 nM

## CC(C)C[C@@H]1NCCOc2ccccc2CCCNC(=O)[C@H](Cc2ccc(O)cc2)NC(=O)C2(CCCC2)NC1=O [compound 88]
[2]
  Ki: 1000 to 10000 nM

## C[C@@H]1C(=O)N[C@H](Cc2ccc(F)cc2)C(=O)NCCC=CCOCCN[C@@H](C2CC2)C(=O)N1C [compound 307]
[1]
  Ki: 100 to 1000 nM

## CCCC[C@@H]1NCCOc2ccccc2CCCNC(=O)[C@H](Cc2ccccc2)NC(=O)C2(CCCC2)NC1=O [compound 101]
[2]
  Ki: 100 to 1000 nM

## O=C1NC2(CCCC2)C(=O)N[C@@H](Cc2ccccc2)C(=O)NC/C=C/c2ccccc2OCCN[C@H]1Cc1cccc2ccccc12 [compound 130]
[2]
  Ki: 1000 to 10000 nM

## CCC(C)C1NCCCc2ccccc2C=CCCNC(=O)C(Cc2cccc(Cl)c2)NC(=O)C2(CCCC2)NC1=O (stereo not drawn) [compound 361]
[1]
  Ki: 100 to 1000 nM

## O=C1NC2(CCCC2)C(=O)N[C@@H](Cc2ccccc2)C(=O)NC/C=C/c2ccccc2OCCN[C@H]1Cc1cnc[nH]1 [compound 219]
[3]
  Ki: 100 to 1000 nM

## CCC(C)[C@@H]1NCCCc2ccccc2/C=C/CNC(=O)[C@@H](Cc2ccc(F)cc2)NC(=O)[C@@H](C)N(C)C1=O (stereo partly drawn) [353a]
[1]
  Ki: 10 to 100 nM

## CCC[C@@H]1NCc2ccccc2Sc2ccccc2CNC(=O)[C@@H](Cc2ccccc2)NC(=O)CN(C)C1=O [compound 77]
[2]
  Ki: 100 to 1000 nM

## COC[C@@H]1NCCOc2ccccc2/C=C/CNC(=O)[C@H](Cc2cccc(Cl)c2)NC(=O)C2(CCCC2)NC1=O [compound 344]
[1]
  Ki: 100 to 1000 nM

## O=C1NC2(CCCC2)C(=O)N[C@@H](Cc2ccccc2)C(=O)NCCCc2ccccc2OCCN[C@H]1Cc1ccccc1 [compound 102]
[2]
  Ki: 100 to 1000 nM

## CC[C@H](C)[C@@H]1NCCOCCOCCNC(=O)[C@H](Cc2cccc(Cl)c2)NC(=O)C2(CCCC2)NC1=O [compound 393]
[1]
  Ki: 100 to 1000 nM

## C[C@@H]1C(=O)N[C@H](Cc2ccc(F)cc2)C(=O)NCCCc2ccccc2OCCN[C@@H](CCCN)C(=O)N1C [compound 339]
[1]
  Ki: 100 to 1000 nM

## CCC(C)C1NCCOCCCCCNC(=O)C(Cc2cccc(Cl)c2)NC(=O)C2(CCCC2)NC1=O (stereo not drawn) [compound 370]
[1]
  Ki: 100 to 1000 nM

## CC[C@H](C)[C@@H]1NCCc2ccccc2C=CCNC(=O)[C@@H](Cc2ccccc2)NC(=O)[C@@H](C)N(C)C1=O [compound 187]
[3]
  Ki: 100 to 1000 nM

## CN1CC(=O)N[C@H](Cc2ccccc2)C(=O)NCCCc2ccccc2OCCN[C@@H](CO)C1=O [compound 76]
[2]
  Ki: > 10000 nM

## CCC[C@@H]1NCCOc2ccccc2CCCNC(=O)[C@@H](Cc2ccccc2)NC(=O)[C@H](CCC(=O)O)NC1=O [compound 70]
[2]
  Ki: > 10000 nM

## COC[C@@H]1NCCOc2ccccc2CCCNC(=O)[C@@H](Cc2ccc(F)cc2)NC(=O)[C@@H](C)N(C)C1=O [compound 336]
[1]
  Ki: 100 to 1000 nM

## CCC[C@@H]1NCCOc2ccccc2/C=C/CNC(=O)[C@H](Cc2ccccc2)NC(=O)C2(CCCC2)NC1=O [compound 137]
[2]
  Ki: 10 to 100 nM

## C[C@@H]1C(=O)N[C@H](Cc2ccsc2)C(=O)NCCCc2ccccc2OCCN[C@@H](C2CC2)C(=O)N1C [compound 310]
[1]
  Ki: 10 to 100 nM

## CC(=O)N1CCOc2ccccc2/C=C/CNC(=O)[C@H](Cc2ccccc2)NC(=O)C2(CCCC2)NC(=O)[C@@H]1CC(C)C [compound 204]
[3]
  Ki: > 10000 nM

## C[C@@H]1C(=O)N[C@H](Cc2ccc(C#N)cc2)C(=O)NCCCc2ccccc2OCCN[C@@H](C2CC2)C(=O)N1C [compound 321]
[1]
  Ki: 10 to 100 nM

## C[C@@H]1C(=O)N[C@H](Cc2ccc(F)cc2)C(=O)NCCCc2cc(Cl)ccc2OCCN[C@@H](C2CC2)C(=O)N1C [compound 373]
[1]
  Ki: 10 to 100 nM

## O=C1NC2(CCCC2)C(=O)N[C@@H](Cc2ccccc2)C(=O)NC/C=C/c2ccccc2OCCN[C@H]1Cc1cscn1 [compound 134]
[2]
  Ki: 100 to 1000 nM

## CC(C)[C@@H]1NCCOc2ccccc2CCCNC(=O)[C@H](Cc2ccccc2)NC(=O)C2(CC2)NC1=O [compound 216]
[3]
  Ki: 1000 to 10000 nM

## C[C@@H]1C(=O)N[C@H](Cc2ccc(F)cc2)C(=O)NCCCc2ccc(NS(C)(=O)=O)cc2OCCN[C@@H](C2CC2)C(=O)N1C [compound 357]
[1]
  Ki: 100 to 1000 nM

## CCC[C@H]1C(=O)N(C)[C@H](C)C(=O)N[C@H](Cc2ccccc2)C(=O)NCCCc2ccccc2OCCN1C(C)=O [compound 202]
[3]
  Ki: > 10000 nM

## O=C1NC2(CCCC2)C(=O)N[C@@H](Cc2ccccc2)C(=O)NC/C=C/c2ccccc2OCCN[C@H]1Cc1ccccn1 [compound 210]
[3]
  Ki: > 1000 nM

## CC[C@H](C)[C@@H]1NCCOc2ccccc2CCCNC(=O)[C@@H](Cc2ccc(F)cc2)NC(=O)[C@@H](COCc2ccccc2)N(C)C1=O [compound 440]
Table 3D, read-out: Ki
  Ki: 100 to 1000 nM

## O=C1NC/C=C/c2ccccc2OCCN[C@@H](C(c2ccccc2)c2ccccc2)C(=O)NC2(CCCC2)C(=O)N[C@H]1Cc1ccccc1 [compound 129]
[2]
  Ki: > 10000 nM

## C[C@@H]1C(=O)N[C@H](Cc2ccc(F)c(F)c2)C(=O)NCCCc2ccccc2OCCN[C@@H](C2CC2)C(=O)N1C [compound 316]
[1]
  Ki: 10 to 100 nM

## CCCC1NCCOCCNC(=O)C(Cc2ccccc2)NC(=O)CN(C)C1=O (stereo not drawn) [compound 81]
[2]
  Ki: > 10000 nM

## CC(C)C[C@@H]1NCCOc2ccccc2/C=C/CNC(=O)[C@H](C(c2ccccc2)c2ccccc2)NC(=O)C2(CCCC2)NC1=O [compound 158]
[3]
  Ki: > 1000 nM

## C[C@@H]1C(=O)N[C@H](Cc2ccc(F)cc2)C(=O)NCCCc2ccccc2OCCN[C@@H](C2CC2)C(=O)N1C [compound 309]
[1]
  Ki: 0.1 to 10 nM

## CC(C)C[C@@H]1NCCOc2ccccc2CCCNC(=O)[C@H](Cc2ccccc2)NC(=O)C(C)(C)NC1=O [compound 95]
[2]
  Ki: 1000 to 10000 nM

## C[C@@H]1C(=O)N[C@H](Cc2ccc(Br)cc2)C(=O)NCCCc2ccccc2OCCN[C@@H](C2CC2)C(=O)N1C [compound 319]
[1]
  Ki: 0.1 to 10 nM

## CC(C)C[C@@H]1NCCOc2ccccc2CCCNC(=O)[C@H](Cc2ccccc2)NC(=O)[C@@H]2CCCN2C1=O [compound 222]
Table 3E, read-out: Ki
  Ki: 1000 to 10000 nM
[3]
  Ki: 1000 to 10000 nM

## CC[C@H](C)[C@@H]1NCCCc2ccccc2CCNC(=O)[C@@H](Cc2ccccc2)NC(=O)[C@@H](C)N(C)C1=O [compound 179]
[3]
  Ki: 100 to 1000 nM

## C[C@@H]1C(=O)N[C@H](Cc2cc(F)cc(F)c2)C(=O)NCCCc2ccccc2OCCN[C@@H](C2CC2)C(=O)N1C [compound 317]
[1]
  Ki: 10 to 100 nM

## C[C@@H]1C(=O)N[C@H](Cc2ccccc2F)C(=O)NCCCc2ccccc2OCCN[C@@H](C2CC2)C(=O)N1C [compound 312]
[1]
  Ki: 0.1 to 10 nM

## CC(C)C[C@@H]1NCCOc2ccccc2CCCNC(=O)[C@H](Cc2c[nH]c3ccccc23)NC(=O)C2(CCCC2)NC1=O [compound 89]
[2]
  Ki: 1000 to 10000 nM

## CC1C(=O)NC(Cc2ccc(F)cc2)C(=O)NCC2CC2c2ccccc2OCCNC(C2CC2)C(=O)N1C (stereo not drawn) [compound 379]
[1]
  Ki: 10 to 100 nM

## CCC[C@@H]1NCCOc2ccccc2CCCNC(=O)[C@@H](C)NC(=O)CN(C)C1=O [compound 49]
[2]
  Ki: > 10000 nM

## CCC[C@@H]1NCCOc2ccccc2CCCNC(=O)[C@@H](Cc2ccccc2)NC(=O)[C@@H](CC(C)C)NC1=O [compound 63]
[2]
  Ki: > 10000 nM
